The record followed here is patent EP2650284A1, “Heterocyclic derivatives as metabotropic glutamate receptor modulators” (Merz Pharma GmbH & Co. KGaA, priority 2012, dated 2013).

One test concerns the target T1, mGluR5 receptors (Rattus norvegicus, UniProt P31424).
T1 construct: Primary astrocyte cultures are prepared from cortices of newborn rats; endogenous in cells; host or cells: primary cortical astrocytes from Sprague-Dawley rat pups (2-4 d old)
In words: Cytosolic calcium studies with astrocytes (FLIPR), functional assay of mGluR5 receptors. The class given is cell-based. To be noted: for EC50: Table A1, positive modulators, fixed concentration of quisqualate (normally 10-30 nM), read-out: rEC50. The gist of the method: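 Rat cortical primary astrocytes at 14-15 DIV, loaded with Ca-sensitive dye for 2 h at RT, pH 7.3 buffer; FLIPR fluorescence after L-quisqualate (100 nM), antagonists pre-incubated 10 min. PAMs: quisqualate curves ± 10 µM modulator, or modulator curves at fixed 10-30 nM quisqualate. Max-min responses as % control, logistic fit.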

Test [1] concerns the target T2, human metabotropic glutamate receptor mGluR5 (Homo sapiens, UniProt P41594).
T2 construct: expressed in transfected cells; host or cells: CHO-K1 (h5CHO), IPTG-inducible
As to the kind of experiment: Cytosolic calcium studies with stably transfected cells (h5CHO), functional assay of mGluR5 receptors. The class given is cell-based. To be noted: for h left shift: h5CHO cells; for EC50: positive modulators, h5CHO cells preincubated with modulator, stimulated by an EC20 concentration of L-glutamate, read-out: hEC50. The gist of the method: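 IPTG-induced h5CHO (CHO-K1 expressing human mGluR5) loaded with calcium dye; compounds (0.5% DMSO) added 5 min before agonist. NAM IC50 against L-quisqualate at ~EC80; PAM EC50 with EC20 L-glutamate. FLIPR fluorescence, max-minus-min, % of maximal response, logistic fit.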

Where [2] appears, read: Table A3 (SAMs / very weak PAMs), quisqualate EC50 shift with 10 µM modulator.
Setting [3] is: Table A3 (SAMs / very weak PAMs), agonist EC50 shift with 10 µM modulator or vehicle.
Where [4] appears, read: Table A1, left shift of quisqualate EC50 in the presence and absence of 10 µM modulator.
Where [5] appears, read: Table A1, left shift of agonist EC50, dose response curves in the presence of 10 µM modulator or vehicle.

T2 sequence (P41594 21-1212): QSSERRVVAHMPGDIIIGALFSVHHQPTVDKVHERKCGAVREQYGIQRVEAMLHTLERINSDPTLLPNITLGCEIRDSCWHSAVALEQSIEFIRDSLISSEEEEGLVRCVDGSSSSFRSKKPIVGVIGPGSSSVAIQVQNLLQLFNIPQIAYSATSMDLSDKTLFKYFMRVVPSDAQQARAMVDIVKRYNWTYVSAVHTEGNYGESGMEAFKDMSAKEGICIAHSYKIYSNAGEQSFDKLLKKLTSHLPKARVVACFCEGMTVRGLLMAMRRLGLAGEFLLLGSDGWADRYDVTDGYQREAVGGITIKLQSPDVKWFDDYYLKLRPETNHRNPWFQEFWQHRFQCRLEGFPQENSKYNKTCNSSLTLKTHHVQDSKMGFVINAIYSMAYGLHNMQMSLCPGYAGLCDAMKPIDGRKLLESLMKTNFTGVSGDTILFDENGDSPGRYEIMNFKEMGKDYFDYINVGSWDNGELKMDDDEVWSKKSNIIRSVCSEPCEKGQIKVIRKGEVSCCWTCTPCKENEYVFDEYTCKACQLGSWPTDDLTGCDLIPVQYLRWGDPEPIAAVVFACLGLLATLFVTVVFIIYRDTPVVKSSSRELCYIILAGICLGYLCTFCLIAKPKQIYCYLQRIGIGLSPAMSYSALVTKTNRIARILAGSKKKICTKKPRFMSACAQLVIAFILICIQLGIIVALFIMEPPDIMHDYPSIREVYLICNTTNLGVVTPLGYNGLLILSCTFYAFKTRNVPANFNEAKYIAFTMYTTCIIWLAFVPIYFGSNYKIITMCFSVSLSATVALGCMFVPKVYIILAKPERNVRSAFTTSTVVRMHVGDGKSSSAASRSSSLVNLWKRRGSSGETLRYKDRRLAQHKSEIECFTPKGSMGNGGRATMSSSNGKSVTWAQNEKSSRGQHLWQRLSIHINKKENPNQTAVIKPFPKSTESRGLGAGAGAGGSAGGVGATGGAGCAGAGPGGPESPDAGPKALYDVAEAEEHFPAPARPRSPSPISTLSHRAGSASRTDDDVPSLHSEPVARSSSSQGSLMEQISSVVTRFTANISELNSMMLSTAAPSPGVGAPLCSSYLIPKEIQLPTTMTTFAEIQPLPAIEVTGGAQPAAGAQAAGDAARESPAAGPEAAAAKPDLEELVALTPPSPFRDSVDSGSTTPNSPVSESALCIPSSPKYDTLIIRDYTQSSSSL
T1 sequence (P31424 21-1203): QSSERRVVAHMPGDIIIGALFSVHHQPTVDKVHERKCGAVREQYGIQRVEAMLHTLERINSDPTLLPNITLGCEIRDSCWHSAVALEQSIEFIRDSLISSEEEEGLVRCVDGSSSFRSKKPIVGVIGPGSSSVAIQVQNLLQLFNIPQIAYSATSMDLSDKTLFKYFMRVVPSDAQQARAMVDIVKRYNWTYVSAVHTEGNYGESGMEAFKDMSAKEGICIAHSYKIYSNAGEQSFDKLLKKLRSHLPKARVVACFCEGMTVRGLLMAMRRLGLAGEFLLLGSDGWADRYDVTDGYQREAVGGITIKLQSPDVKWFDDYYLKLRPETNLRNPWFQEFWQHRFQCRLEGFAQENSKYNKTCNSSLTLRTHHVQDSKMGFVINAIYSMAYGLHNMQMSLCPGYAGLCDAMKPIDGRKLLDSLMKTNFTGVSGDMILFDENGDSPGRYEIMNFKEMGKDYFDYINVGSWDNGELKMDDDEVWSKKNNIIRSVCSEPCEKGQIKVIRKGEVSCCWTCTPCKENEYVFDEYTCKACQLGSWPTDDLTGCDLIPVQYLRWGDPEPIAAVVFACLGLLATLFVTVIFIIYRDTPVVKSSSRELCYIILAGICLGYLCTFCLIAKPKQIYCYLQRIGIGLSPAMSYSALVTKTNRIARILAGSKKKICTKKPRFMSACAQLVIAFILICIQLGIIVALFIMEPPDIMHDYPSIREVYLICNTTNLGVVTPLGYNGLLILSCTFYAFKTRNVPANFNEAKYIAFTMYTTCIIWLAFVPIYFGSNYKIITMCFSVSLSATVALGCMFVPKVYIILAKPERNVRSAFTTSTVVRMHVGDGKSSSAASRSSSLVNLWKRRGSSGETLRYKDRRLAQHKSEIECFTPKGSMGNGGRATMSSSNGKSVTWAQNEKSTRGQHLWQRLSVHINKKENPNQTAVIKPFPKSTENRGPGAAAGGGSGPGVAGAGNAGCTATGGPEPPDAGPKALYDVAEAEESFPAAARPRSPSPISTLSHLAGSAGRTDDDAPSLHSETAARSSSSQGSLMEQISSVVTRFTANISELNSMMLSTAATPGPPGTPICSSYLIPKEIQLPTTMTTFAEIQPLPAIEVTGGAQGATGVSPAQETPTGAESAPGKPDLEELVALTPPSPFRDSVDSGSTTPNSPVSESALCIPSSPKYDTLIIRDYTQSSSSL

For the compound `CCCN1CCO[C@@H]2c3cc(C#Cc4cccc(C)c4)cnc3CC[C@@H]21` (racemic) [Example 21, (rac)-cis-4-Propyl-9-(m-tolylethynyl)-3,4,4a,5,6,10b-hexahydro-2H-[1,4]oxazino[2,3-f]quinoline], the r left shift on mGluR5 receptors (setting [2]) is listed as 1.9-fold. In test [1] (setting [3]), the h left shift is 1.3-fold.
The like results for `COC(=O)N1CC[C@H]2CCc3ncc(C#Cc4ccccc4)cc3[C@H]21` (racemic) [Example 29, (rac)-cis-Methyl 8-(phenylethynyl)-2,3,3a,4,5,9b-hexahydro-1H-pyrrolo[2,3-f]quinoline-1-carboxylate] were, in that order, 0.8-fold and 1.3-fold.
Take `CCCN1CC2(CCCc3ncc(C#Cc4cccc(C)c4)cc32)OC1=O` (racemic) [Example 64, (rac)-3-Propyl-3'-(m-tolylethynyl)-7',8'-dihydro-6'H-spiro[oxazolidine-5,5'-quinolin]-2-one]: at mGluR5 receptors (setting [2]), the r left shift is reported as 0.9-fold. Moreover, the h left shift in test [1] (setting [3]) is reported as 1.2-fold.
The like results for `CCCN1CC2(CCCc3ncc(C#Cc4cccc(F)c4)cc32)OC1=O` (racemic) [Example 66, (rac)-3'-((3-Fluorophenyl)ethynyl)-3-propyl-7',8'-dihydro-6'H-spiro[oxazolidine-5,5'-quinolin]-2-one] were, in that order, 1.3-fold and 1.6-fold.
In the case of `COC1CCCc2ncc(C#Cc3ccccc3)cc21` (single isomer, unassigned) [Example 2, 5-Methoxy-3-(phenylethynyl)-5,6,7,8-tetrahydroquinoline], the r left shift on mGluR5 receptors (setting [4]) and on mGluR5 receptors (setting [2]) was 4.4-fold in each case. Moreover, the figures for the EC50 (on mGluR5 receptors; in test [1] (Table A1)) were 12.5 nM and 20.9 nM, respectively. The h left shift in test [1] (setting [5]) and in test [1] (setting [3]) was 2.3-fold each time.
With `CCCN1CCO[C@@H]2c3cc(C#Cc4ccccc4)cnc3CC[C@@H]21` (single isomer, unassigned) [Example 17, cis-9-(Phenylethynyl)-4-propyl-3,4,4a,5,6,10b-hexahydro-2H-[1,4]oxazino[2,3-f]quinoline], the r left shift at mGluR5 receptors (setting [4]) and on mGluR5 receptors (setting [2]) was 3.5-fold throughout. Moreover, the results for the EC50 (at mGluR5 receptors; in test [1] (Table A1)) were 67 nM and 388 nM, respectively. Further, the h left shift in test [1] (setting [5]) and in test [1] (setting [3]) was 2.3-fold each time.
Take `CC(C)C(=O)N1CCc2ncc(C#Cc3ccccc3)cc2C1` [Example 33, 2-Methyl-1-(3-(phenylethynyl)-7,8-dihydro-1,6-naphthyridin-6(5H)-yl)propan-1-one]: the r left shift at mGluR5 receptors (setting [2]) was 1.3-fold. For the same compound, the h left shift in test [1] (setting [3]) was 1.4-fold.
Consider `CCOC(=O)N1CCc2ncc(C#Cc3ccccc3)cc2C1` [Example 40, Ethyl 3-(phenylethynyl)-7,8-dihydro-1,6-naphthyridine-6(5H)-carboxylate], for which the r left shift on mGluR5 receptors (setting [2]) is given as 1.6-fold. Further, in test [1] (setting [3]), the h left shift was 1.3-fold.
